For series [1], the system named is zebrafish embryos. The conditions noted are these: in vivo.
Procedure: Fish Embryo Acute Toxicity Test (FET) was performed to determine the tolerated doses of the studied compounds. […] A range of three test concentrations (100, 120, and 150 μM) of Rg1, Rh1, and F1 and (25, 50, and 75M) of PPT was used. […] Stock solutions were made in DMSO, and final dilutions in egg water (60 μg/mL Instant Ocean Sea salts and 0.0025% methylene blue), such that the final DMSO concentration were 0.01%. The following controls were used: a negative control (nC, egg water), a solvent control (sC, 0.01% DMSO in egg water), and positive control (pC), 4 mg/L 3,4-dichloroaniline (Sigma-Aldrich, St. Louis, MO, USA) in egg water.
Embryos were collected around at 1.5 hpf and distributed over standard twenty-four well plates (10 embryos per well), with each well containing 2 mL of test solution. […] Five 24-well plates were prepared, each with 3 wells containing the Rg1, F1, or Rh1 solutions (100, 120, 150 μM), 3 wells containing the PPT (25, 50, and 75 μM), two for nC and sC, and one for pC (on each plate, 7 wells remained empty). All solutions were refreshed daily.
The plates were kept at a temperature between 26 and 27° C. and exposed to a 12 h light and 12 h dark cycle. At 96, and 120 hpf, the average survival rate (in %) for all experimental groups was determined. Additionally, hatching was recorded at 48 and 72 hpf. Survival rates for the studied compound and pC-treated groups from the five individual plates were averaged.
In series [2] the test system is GR protein. The series can be described thus: western blot GR protein level in HeLa cells. Type of series: cell-based, human. Conditions: for GR protein level, short-term: 6 h; for GR protein level, short-term / GR protein level, long-term: beclomethasone 1 μM, Rg1 20 μM or combination; for GR protein level, long-term: 24 h; for GR protein level in presence of cycloheximide (protein stability): long-term, with cycloheximide (5 μg/ml). As for the experimental part: (§1) HeLa (human cervical cancer) cells were cultured in Dulbecco's Modified Eagle's (DMEM) High Glucose (HG) medium without phenol red supplemented with 10% Fetal Calf Serum (FCS) and 10% Glutamax (Sigma-Aldrich). The cells were maintained at 37° C. and 5% CO2. At 24 h before adding the treatment, the medium was replaced by DMEM HG with 10% charcoal-inactivated serum and 10% Glutamax (Sigma-Aldrich). The cells were exposed to short- and long-term compound treatments. […] Subsequently, TNF-α (10 ng/ml) was added along with the compound treatments for 6 h (this last step was not added in the actinomycin-D and cycloheximide experiments).
Western blots were conducted to determine GR protein levels in HeLa cells. The cells were seeded as described previously in 6-well plates. The cells were exposed to short- and long-term compound treatments. […] Cells were harvested using trypsin (0.25% (v/v) trypsin in PBS, no EDTA), washed twice with PBS, and centrifuged. After centrifuging for 3 min at 3,000 rpm, cell pellets were stored at −80° C. until use. Cells were homogenized in potassium phosphate (KPi lysis buffer; 25 mM K2HPO4—KH2PO4 (pH 6.5)+0.1% (v/v) Triton X-100 (Merck, Darmstadt, Germany)) by sonication (20% amplitude, 3 s on, 3 s off for 4 cycles), using a Vibra-Cell™ VCX 130 sonicator (Sonics, Newtown, CT, USA), while on ice. The total protein concentration of the homogenates was determined using the Quickstart Bradford protein assay (Bio-Rad Laboratories) and measured using an EMax® plus microplate reader (Molecular Devices, Sunnyvale, CA, USA). HeLa cell homogenates (30 μg protein in 10 μl) were added to 30 μl Laemmli sample buffer, vortexed, and, boiled for 5 min at 98° C. Of each sample, 15 μl was loaded in duplicate on a 12% gradient precast SDS-PAGE gel (Bio-Rad Laboratories), and run for approximately 2 h at 90 V (no duplicates were used in the cycloheximide experiment). The experiments were performed 4 times (6 times for the cycloheximide experiment). After running the gel, proteins were transferred to a nitrocellulose membrane (Thermo Fisher Scientific) by using Bio-Rad Power Pac Basic Mini Electrophoresis System at 100 V for 1 h. The blot was washed in a blocking buffer (Tris-buffered saline containing 0.1% Tween-20 (TBST) with 3% BSA) 3 times for 15 min at room temperature. A primary GR antibody (Glucocorticoid Receptor Recombinant Rabbit Monoclonal Antibody (2D8, ThermoFisher Scientific)) at a 1:500 dilution in TBST with 3% BSA was added to the blots and incubated overnight at 4° C. The next day, the blot was washed with TBST 3 times for 5 min. Then, an HRP-conjugated anti-rabbit secondary antibody (Sigma-Aldrich) at 1:2000 dilution in TBST with 3% BSA was added and incubated at room temperature for 2 h. The blot was washed 3 times for 5 min in TBST with 3% BSA and twice for 5 min with TBST. The blot was incubated with 10 ml of Pierce™ enhanced chemiluminescence (ECL) western blotting substrate (ThermoFisher Scientific) for 1-2 min. Chemiluminescence was detected using a ChemiDoc MP imager (Bio-Rad Laboratories) at an exposure time of 1 min. The blot was washed 3 times for 5 min in TBST, then washed for 1 h in TBST with 3% BSA. A β-actin antibody (MA1-91399, ThermoFisher Scientific) was added at a 1:2000 dilution in TBST with 3% BSA to the blot and incubated overnight at 4° C. The next day, the blot was washed 3 times for 5 min in TBST with 3% BSA. Then, an HRP-conjugated anti-mouse secondary antibody (Sigma-Aldrich) at a 1:2000 dilution in TBST with 3% BSA was added and incubated at room temperature for 2 h. Subsequently, the blot was washed 3 times for 5 min in TBST. The blot was incubated with 10 ml of ECL substrate for 1-2 min, and chemiluminescence was visualized. The intensities of the GR and β-actin bands were quantified using ImageJ software, and the GR level was normalized to the level of β-actin.
(In general: Immunoblotting shows a protein as a band on a membrane.)

The subject of series [3] is MMP9. The series can be described thus: qPCR MMP9 expression in HeLa cells. Type of series: cell-based, human. The conditions noted are these: beclomethasone 1 μM, Rg1 20 μM or combination; for MMP9 expression, long-term: 30 h. The method, then:
as §1
To determine levels of gene expression in zebrafish larvae, 3 dpf larvae were used in both wounded and non-wounded conditions, and after short- and long-term treatments. Groups of 15 larvae were collected in TRIzol reagent (ThermoFisher) and total RNA was isolated using miRNeasy mini kit (Qiagen, Hilden, Germany). For experiments in HeLa cells, cells were seeded in 6 well plates and after treatment, the cells were removed from the wells using TRIzol reagent and mRNA was isolated using miRNeasy mini kit (Qiagen) according to the manufacturer's instructions. The RNA samples were DNAse-treated utilizing the DNA-free™ DNA Removal Kit (ThermoFisher Scientific). The cDNA synthesis was performed using the iScript cDNA synthesis kit (Bio-Rad Laboratories, Hercules, CA, USA) using 1 μg of RNA per sample. For qPCR, 10 μM of forward primer and 10 μM of reverse primer, 12.5 μl of IQ SYBR Green Supermix (Bio-Rad Laboratories), and 2 μl of cDNA were added to the qPCR reaction mixture. […] Cycle threshold values (Ct values, i.e. the cycle numbers at which a threshold value of the fluorescence intensity was reached) were determined for each sample. […] The fold change per sample (compared to the respective control group) was calculated using the […]Ct method.
Background: Real-time PCR tracks product formation cycle by cycle.

Series [4] has as its system GILZ. Kind of series: qPCR GILZ expression in HeLa cells (GR transactivation). Type of series: cell-based, human. Conditions: beclomethasone 1 μM, Rg1 50 μM or combination. The method, then: as §1
To determine levels of gene expression in zebrafish larvae, 3 dpf larvae were used in both wounded and non-wounded conditions, and after short- and long-term treatments. Groups of 15 larvae were collected in TRIzol reagent (ThermoFisher) and total RNA was isolated using miRNeasy mini kit (Qiagen, Hilden, Germany). For experiments in HeLa cells, cells were seeded in 6 well plates and after treatment, the cells were removed from the wells using TRIzol reagent and mRNA was isolated using miRNeasy mini kit (Qiagen) according to the manufacturer's instructions. The RNA samples were DNAse-treated utilizing the DNA-free™ DNA Removal Kit (ThermoFisher Scientific). The cDNA synthesis was performed using the iScript cDNA synthesis kit (Bio-Rad Laboratories, Hercules, CA, USA) using 1 μg of RNA per sample. For qPCR, 10 μM of forward primer and 10 μM of reverse primer, 12.5 μl of IQ SYBR Green Supermix (Bio-Rad Laboratories), and 2 μl of cDNA were added to the qPCR reaction mixture. […] The qPCR reactions were performed on a MyiQ-single-color real-time PCR detection system (Bio-Rad Laboratories), with initial denaturation for 3 min, 95° C., and 40 cycles of 15 s at 95.5° C., 15 s at 60° C., and 30 s at 72° C. Cycle threshold values (Ct values, i.e. the cycle numbers at which a threshold value of the fluorescence intensity was reached) were determined for each sample. The gene expression level for each sample was normalized using the expression of ppial (peptidylprolyl isomerase Ab (cyclophilin A)) for zebrafish samples, and 18S rRNA for human cells. The fold change per sample (compared to the respective control group) was calculated using the […]Ct method.

Regarding `CC(C)=CCC[C@](C)(O[C@@H]1O[C@H](CO)[C@@H](O)[C@H](O)[C@H]1O)[C@H]1CC[C@]2(C)[C@@H]1[C@H](O)C[C@@H]1[C@@]3(C)CC[C@H](O)C(C)(C)[C@@H]3[C@@H](O)C[C@]12C` [F1], in series [1], the “concentration until which no effects on hatching and survival were observed” value amounted to 100 µM; the “concentration with minimal effects on hatching and survival” value was found to be 120 µM.
As to `CC(C)=CCC[C@](C)(O)[C@H]1CC[C@]2(C)[C@@H]1[C@H](O)C[C@@H]1[C@@]3(C)CC[C@H](O)C(C)(C)[C@@H]3[C@@H](O)C[C@]12C` [PPT, Protopanaxatriol], in series [1], the “concentration until which no effects on hatching and survival were observed” value stood at 50 µM; the “concentration with considerable effects on hatching and survival” value was 75 µM.
Turning to `CC(C)=CCC[C@](C)(O[C@@H]1O[C@H](CO)[C@@H](O)[C@H](O)[C@H]1O)[C@H]1CC[C@]2(C)[C@@H]1[C@H](O)C[C@@H]1[C@@]3(C)CC[C@H](O)C(C)(C)[C@@H]3[C@@H](O[C@@H]3O[C@H](CO)[C@@H](O)[C@H](O)[C@H]3O)C[C@]12C` [Rg1, (3β,6α, 12β)-3,12-Dihydroxydammar-24-ene-6,20-diyl bis-β-D-glucopyranoside], in series [2], the “GR protein level, short-term” value is on record as “did not affect the GR mRNA or GR protein level”; the “GR protein level, long-term” value is on record as “did not affect the GR mRNA or GR protein level”; the “GR protein level in presence of cycloheximide (protein stability)” value is “protein stability is affected in a similar way as the mRNA levels by beclomethasone, and not Rg1”. In addition, in series [3] (6 h), the “MMP9 expression, short-term” value is reported as “slightly suppressed”. For the same compound, the “MMP9 expression, long-term” value in series [3] was “more strongly after long-term treatment”. Besides, in series [4], the “GILZ expression, long-term” value is recorded as “did not affect the expression of these genes” and the “GILZ expression, short-term” value is reported as “did not affect the expression of these genes”.
Take `C[C@H]1C[C@H]2[C@@H]3CCC4=CC(=O)C=C[C@]4(C)[C@@]3(Cl)[C@@H](O)C[C@]2(C)[C@@]1(O)C(=O)CO` [beclomethasone, reference compound]: in series [2], the “GR protein level, short-term” value was “inhibited the expression of GR at both the mRNA and protein level”; the “GR protein level, long-term” value is on record as “this inhibitory effect increased over time”; the “GR protein level in presence of cycloheximide (protein stability)” value was “protein stability is affected in a similar way as the mRNA levels by beclomethasone, and not Rg1”. Further, the “MMP9 expression, long-term” value in series [3] is on record as “the suppressive effects of beclomethasone were significantly reduced after long-term treatment”. Further, in series [4], the “GILZ expression, long-term” value is “reduced over time” and the “GILZ expression, short-term” value is recorded as “strongly increased the expression of these genes after short-term treatment”.
